Source: PMC4747042 (Molecular microbiology, 2009)

Target: T1, MenA (Mycobacterium tuberculosis, UniProt P9WIP3)
T1 sequence (P9WIP3 1-292): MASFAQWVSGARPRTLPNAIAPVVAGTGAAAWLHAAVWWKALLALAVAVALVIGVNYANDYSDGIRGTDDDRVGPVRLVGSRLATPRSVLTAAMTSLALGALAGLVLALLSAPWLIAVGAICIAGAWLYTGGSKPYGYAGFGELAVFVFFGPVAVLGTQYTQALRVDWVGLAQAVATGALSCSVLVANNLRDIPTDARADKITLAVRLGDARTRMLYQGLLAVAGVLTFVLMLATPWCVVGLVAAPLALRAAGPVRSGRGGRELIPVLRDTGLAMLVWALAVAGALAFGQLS
Format: biochemical

C=CCN(C)CCCCCCOc1ccc(C(=O)c2ccc(Br)cc2)c(F)c1 [Ro 48-8071]
IC50: 9 µM
